The nature of the series: Tableting study: compression forces and crushing strength of tablets (eccentric tableting machine, Scleuninger-E apparatus). Format: physicochemical. The settings on record: tablets of target weight 300 mg, flat-faced 9 mm punches, die wall lubricated with 5% (w/V) magnesium stearate in acetone; upper punch force differs per material (Table 1). The protocol: The material obtained from Example 1 was tableted using an instrumented eccentric tableting machine (Korsch EK-0, Erweka Apparatebau, Heusenstamm, Germany) Flat-faced 9 mm punches were used and the die wall was lubricated using 5% (w/V) magnesium stearate in acetone before each compression. The target weights of tablets were 300 mg. Compression forces during the compression process were measured and the crushing strength of each tablet was measured using Scleuninger-E apparatus (Switzerland) (Table 1).

As for `CC(=O)Nc1ccc(O)cc1` [Neat paracetamol, paracetamol], the Crushing strength result is “No tablet, no measurable”.
